{"source": "patent US20240175865A1", "about": "“IMPROVED PROCESSES FOR RATIONALLY-DESIGNING AND PRODUCING BIOMOLECULES” (priority 2020, published 2024)", "key": {"[1]": {"target": "T1, Escherichia coli EF-Tu, unmodified (SEQ ID NO: 3) (Escherichia coli, UniProt P0CE47)", "T1 construct": "His6 tag (C-terminal SHHHHHH in the listing) (C)", "test": "Nucleotide dissociation rate, stopped-flow, unmodified EF-Tu", "assay_type": "binding", "conditions": "20° C., TAKM7"}, "[2]": {"target": "Streptococcus pneumoniae MalX variant E312C, MDCC conjugate (parent MalX SEQ ID NO: 1) (Streptococcus pneumoniae, UniProt P59213, E319C)", "assay_type": "binding", "conditions": "1 μM biosensor"}, "[3]": {"target": "Streptococcus pneumoniae MalX variant A174C, MDCC conjugate (parent MalX SEQ ID NO: 1) (Streptococcus pneumoniae, UniProt P59213, A181C)", "assay_type": "binding", "conditions": "1 μM biosensor"}, "[4]": {"target": "Streptococcus pneumoniae MalX, unlabeled protein (SEQ ID NO: 1)", "conditions": "unlabeled protein (ABBOTT et al. 2010); read-out: measured affinity (KD); cited from earlier work"}, "[5]": {"target": "T2, Streptococcus pneumoniae MalX variant T243C, MDCC conjugate (parent MalX SEQ ID NO: 1) (Streptococcus pneumoniae serotype 4, UniProt P59213, I417L/S91N/T250C)", "T2 construct": "made in house; host or cells: Escherichia coli BL21(DE3) gold", "test": "biochemical", "assay_type": "binding"}, "[6]": {"system": "Yersinia enterocolitica TogB, unmodified protein (SEQ ID NO: 2)", "conditions": "UV-difference spectroscopy; cited from earlier work"}, "[7]": {"system": "Yersinia enterocolitica TogB, unmodified protein (SEQ ID NO: 2)", "conditions": "isothermal titration calorimetry; cited from earlier work"}, "[8]": {"target": "T2, Streptococcus pneumoniae MalX variant T243C, MDCC conjugate (parent MalX SEQ ID NO: 1)", "assay_type": "binding", "conditions": "1 μM biosensor, 20 μM maltose"}}, "note": "Where two headings read alike, the source gives them in different places."}
{"smiles": "Nc1nc2c(ncn2[C@@H]2O[C@H](COP(=O)(O)OP(=O)(O)O)[C@@H](O)[C@H]2O)c(=O)[nH]1", "note": "[GDP, guanosine diphosphate]", "values": [{"measurement": "koff", "setting": "[1]; mantGDP complex mixed with excess GTP/GDP, read-out: GDP Dissociation Rate Koff", "result": "0.002 ± 0.001", "unit": "s⁻¹"}]}
{"smiles": "Nc1nc2c(ncn2[C@@H]2O[C@H](COP(=O)(O)OP(=O)(O)OP(=O)(O)O)[C@@H](O)[C@H]2O)c(=O)[nH]1", "note": "[GTP, guanosine triphosphate]", "values": [{"measurement": "koff", "setting": "[1]; mantGTP complex mixed with excess GTP/GDP, read-out: GTP Dissociation Rate koff", "result": "0.04 ± 0.01", "unit": "s⁻¹"}]}
{"smiles": "OC[C@H]1O[C@H](O[C@H]2[C@H](O)[C@@H](O)[C@@H](O[C@H]3[C@H](O)[C@@H](O)C(O)O[C@@H]3CO)O[C@@H]2CO)[C@H](O)[C@@H](O)[C@@H]1O", "note": "(stereo partly shown) [M3, Maltotriose]", "values": [{"measurement": "fluorescence change upon binding M3", "setting": "[2]; 20 μM M3", "result": "did not show a fluorescence change"}, {"measurement": "fluorescence change upon binding M3", "setting": "[3]; 20 μM M3", "result": "did not show a fluorescence change"}, {"measurement": "Kd", "setting": "[4]", "result": "0.8 ± 0.125", "unit": "µM"}, {"measurement": "Kd", "setting": "[5]", "result": "0.6 ± 0.2", "unit": "µM"}]}
{"smiles": "O=C(O)[C@H]1O[C@H](O[C@@H]2[C@H](O)[C@@H](O)C(O)O[C@@H]2C(=O)O)[C@H](O)[C@@H](O)[C@H]1O", "note": "(stereo partly shown) [digalUA, digalacturonic acid]", "values": [{"measurement": "Kd", "setting": "[6]", "result": "11.8 ± 0.5", "unit": "µM"}, {"measurement": "Kd", "setting": "[7]", "result": "16 ± 2", "unit": "µM"}]}
{"smiles": "OC[C@H]1O[C@H](O[C@H]2[C@H](O)[C@@H](O)C(O)O[C@@H]2CO)[C@H](O)[C@@H](O)[C@@H]1O", "note": "(stereo partly shown) [maltose, Maltose]", "values": [{"measurement": "fluorescence change in presence of non-specific ligand (maltose)", "setting": "[2]; 20 μM maltose", "result": "little to no fluorescence change"}, {"measurement": "fluorescence change in presence of non-specific ligand (maltose)", "setting": "[8]", "result": "little to no fluorescence change"}, {"measurement": "fluorescence change in presence of non-specific ligand (maltose)", "setting": "[3]; 20 μM maltose", "result": "little to no fluorescence change"}]}
{"smiles": "O=C(O)C1=C[C@H](O)[C@@H](O)[C@@H](O[C@@H]2[C@H](O)[C@@H](O)C(O)O[C@@H]2C(=O)O)O1", "note": "(stereo partly shown) [unsatdigalUA, 4,5-unsaturated digalacturonic acid]", "values": [{"measurement": "Kd", "setting": "[6]", "result": "3.2 ± 0.1", "unit": "µM"}, {"measurement": "Kd", "setting": "[7]", "result": "5 ± 1", "unit": "µM"}]}
